Activity calls are given as the source filed them. The rule behind the calls is not given here.
Experiments:
Assay type in all cases: cell-based
[1] = target: T1, Potassium channel subfamily K member 2 (Homo sapiens) (UniProt O95069); test: Inhibition of human TREK1 S290A mutant at intermediate transition state expressed in CHO cells by whole-cell patch-clamp electrophysiological method
T1 sequence (whole entry): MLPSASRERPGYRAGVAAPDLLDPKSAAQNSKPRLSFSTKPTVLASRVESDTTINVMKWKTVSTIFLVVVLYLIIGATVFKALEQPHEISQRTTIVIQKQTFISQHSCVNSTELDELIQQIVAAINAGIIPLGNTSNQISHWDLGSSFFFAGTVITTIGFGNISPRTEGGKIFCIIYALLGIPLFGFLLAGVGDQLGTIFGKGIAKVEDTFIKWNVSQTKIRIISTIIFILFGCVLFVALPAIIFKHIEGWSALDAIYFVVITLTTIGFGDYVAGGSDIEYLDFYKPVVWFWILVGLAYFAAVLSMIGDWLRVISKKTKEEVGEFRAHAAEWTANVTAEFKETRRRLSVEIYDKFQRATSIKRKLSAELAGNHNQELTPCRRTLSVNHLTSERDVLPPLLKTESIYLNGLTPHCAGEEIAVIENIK

[2] = target: T1, Potassium channel subfamily K member 2 (Homo sapiens); test: (§1) Inhibition of human TREK1 at intermediate transition state expressed in CHO cells by whole-cell patch-clamp electrophysiological method
[3] = target: T1, Potassium channel subfamily K member 2 (Homo sapiens); test: Inhibition of human TREK1 D294A mutant at intermediate transition state expressed in CHO cells by whole-cell patch-clamp electrophysiological method
[4] = target: T1, Potassium channel subfamily K member 2 (Homo sapiens); test: Inhibition of human TREK1 W295A mutant at intermediate transition state expressed in CHO cells by whole-cell patch-clamp electrophysiological method
[5] = target: T2, Potassium channel subfamily K member 4 (Homo sapiens) (UniProt Q9NYG8); test: Inhibition of human TRAAK at intermediate transition state expressed in CHO cells by whole-cell patch-clamp electrophysiological method
T2 sequence (whole entry): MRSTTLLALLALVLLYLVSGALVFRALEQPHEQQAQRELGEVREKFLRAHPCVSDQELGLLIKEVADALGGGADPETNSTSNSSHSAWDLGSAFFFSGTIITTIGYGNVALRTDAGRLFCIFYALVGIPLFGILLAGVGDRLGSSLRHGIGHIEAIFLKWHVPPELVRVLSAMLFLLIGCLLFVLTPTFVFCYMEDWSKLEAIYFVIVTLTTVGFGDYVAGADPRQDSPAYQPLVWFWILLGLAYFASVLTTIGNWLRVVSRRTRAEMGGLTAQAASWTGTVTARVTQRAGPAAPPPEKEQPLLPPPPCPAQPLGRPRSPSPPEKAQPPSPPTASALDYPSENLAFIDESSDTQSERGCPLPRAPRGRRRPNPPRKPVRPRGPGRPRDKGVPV

[6] = target: T1, Potassium channel subfamily K member 2 (Homo sapiens); test: Effect on channel conductance of human TREK1 expressed in CHO cells by single-channel recordings based by inside-out patch method
[7] = target: T1, Potassium channel subfamily K member 2 (Homo sapiens); test: Inhibition of human TREK1 V288A mutant at intermediate transition state expressed in CHO cells by whole-cell patch-clamp electrophysiological method
[8] = target: T3, Potassium channel subfamily K member 10 (Homo sapiens) (UniProt P57789); test: Inhibition of human TREK2 at intermediate transition state expressed in CHO cells by whole-cell patch-clamp electrophysiological method
T3 sequence (whole entry): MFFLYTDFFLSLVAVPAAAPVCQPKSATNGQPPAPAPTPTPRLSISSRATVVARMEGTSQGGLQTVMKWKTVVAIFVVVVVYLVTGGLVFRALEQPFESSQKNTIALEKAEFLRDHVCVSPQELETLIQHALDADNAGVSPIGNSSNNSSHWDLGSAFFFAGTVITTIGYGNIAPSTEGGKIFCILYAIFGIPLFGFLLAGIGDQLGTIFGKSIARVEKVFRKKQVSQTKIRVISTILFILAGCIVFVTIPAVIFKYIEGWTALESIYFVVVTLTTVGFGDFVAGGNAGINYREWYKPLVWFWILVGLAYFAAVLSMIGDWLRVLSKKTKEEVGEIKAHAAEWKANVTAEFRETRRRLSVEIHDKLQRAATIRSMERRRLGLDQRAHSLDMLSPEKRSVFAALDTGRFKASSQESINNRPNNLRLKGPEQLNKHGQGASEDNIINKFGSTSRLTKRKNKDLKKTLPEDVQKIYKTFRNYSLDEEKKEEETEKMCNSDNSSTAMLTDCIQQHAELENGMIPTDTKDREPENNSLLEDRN

[9] = target: T4, Potassium channel subfamily K member 2 (Homo sapiens, UniProt O95069); test: as §1
T4 sequence (O95069 whole entry): T1 sequence (whole entry)

[10] = target: T1, Potassium channel subfamily K member 2 (Homo sapiens); test: Inhibition of human TREK1 R207A mutant at intermediate transition state expressed in CHO cells by whole-cell patch-clamp electrophysiological method
[11] = target: T1, Potassium channel subfamily K member 2 (Homo sapiens); test: Inhibition of human TREK1 M291A mutant at intermediate transition state expressed in CHO cells by whole-cell patch-clamp electrophysiological method
[12] = target: T1, Potassium channel subfamily K member 2 (Homo sapiens); test: Inhibition of human TREK1 at intermediate transition state expressed in CHO cells assessed as decrease in probability of TREK1 channel being in open state by single-channel recordings based by inside-out patch method
[13] = target: T1, Potassium channel subfamily K member 2 (Homo sapiens); test: Inhibition of human TREK1 T211A mutant at intermediate transition state expressed in CHO cells by whole-cell patch-clamp electrophysiological method
[14] = target: T1, Potassium channel subfamily K member 2 (Homo sapiens); test: Inhibition of human TREK1 in open state expressed in CHO cells in presence of 10 uM TREK1 activator arachidonic acid by whole-cell patch-clamp electrophysiological method

COc1ccc2nc(SCC(=O)NNC(=O)c3ccc(Cl)cc3)ccc2c1 was tested, and the inhibition [1] was “inactive”, the inhibition [2] was “Active” and the inhibition [3] was “Active”.
In the case of O=C(CSc1ccc2ccccc2n1)NNC(=O)c1ccc(Cl)cc1, the inhibition [4] is reported as “inactive”, the inhibition [5] is reported as “inactive” and the inhibition [1] is reported as “Active”. For the same molecule, the Activity [6] was “inactive”, the inhibition [7] was “Active” and the inhibition [8] was “Active”. For the same molecule, the IC50 [9] was 2990 nM, the inhibition [2] was “Dose-dependent effect” and the inhibition [3] was “inactive”. The inhibition [10] was “Active”, the inhibition [11] was “inactive” and the inhibition [12] was “Active”. For the same molecule, the inhibition [13] was “inactive” and the inhibition [14] was “inactive”.
CNCCC(Oc1ccc(C(F)(F)F)cc1)c1ccccc1 (stereo unspecified) was tested, and the inhibition [10] was “inactive”.
In the case of O=C(CSc1ccc2cc(F)ccc2n1)NNC(=O)c1ccc(Cl)cc1, the inhibition [1] is reported as “Active”, the inhibition [2] is reported as “Active” and the inhibition [3] is reported as “inactive”.

Source: ChEMBL document CHEMBL4665784, “Discovery of an Inhibitor for the TREK-1 Channel Targeting an Intermediate Transition State of Channel Gating” (J Med Chem, 2020)
